In patent US20240327393A1 (SIRONAX LTD., priority 2021, published 2024):
Like-named read-outs stand apart in the source and are kept apart here.

Test system: HT-1080 (ATCC, CCL-121) cells
Assay: HT-1080 cell viability assay with ferroptosis inducer RSL3 (Cell Titer-Glo)
Type: cell-based
Settings: HT-1080 cells treated with RSL3, 3-fold, 10-point dilution, 1.1 μM highest concentration, Table 3, read-out: EC50 (nM), ferroptosis inhibitory activity
Method in brief: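 EC50 was derived by sigmoidal dose-response regression of CellTiter-Glo luminescence viability, expressed relative to untreated wells. Compounds were tested in a ten-point, threefold dilution series (highest 1.1 μM) in the presence of the ferroptosis inducer RSL3. HT-1080 cells had been seeded at 6000 per well and grown overnight first.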

Cc1cc(N2CCC(C(F)(F)F)C2)ccc1Nc1ccc2c(c1)OCC(=O)N2 (stereo not drawn) [Compound 587, 7-((2-methyl-4-(3-(trifluoromethyl)pyrrolidin-1-yl)phenyl)amino)-2H-benzo[b][1,4]oxazin-3(4H)-one]
EC50 (Homo sapiens): 0.1 to 100 nM

Cc1cc(N2CCC(C(F)(F)F)C2)ccc1Nc1ccc2c(c1)OCC(=O)N2 (stereo not drawn) [Compound 588, 7-((2-methyl-4-(3-(trifluoromethyl)pyrrolidin-1-yl)phenyl)amino)-2H-benzo[b][1,4]oxazin-3(4H)-one]
EC50: 0.1 to 100 nM

Cc1cc(N2CCC(OC(F)(F)F)C2)ccc1Nc1ccc2c(c1)OCC(=O)N2 (stereo not drawn) [Compound 589, 7-((2-methyl-4-(3-(trifluoromethoxy)pyrrolidin-1-yl)phenyl)amino)-2H-benzo[b][1,4]oxazin-3(4H)-one]
EC50 (Homo sapiens): 0.1 to 100 nM

Cc1cc(N2CC(C(F)(F)F)C2)ccc1Nc1ccc2c(c1)OCCC(=O)N2 [Compound 590]
EC50 (Homo sapiens): 0.1 to 100 nM

Cc1cc(N2CCC(OC(F)(F)F)C2)ccc1Nc1ccc2c(c1)OCCC(=O)N2 (stereo not drawn) [Compound 591, 8-((2-methyl-4-(3-(trifluoromethoxy)pyrrolidin-1-yl)phenyl)amino)-2,3-dihydrobenzo[b][1,4]oxazepin-4(5H)-one]
EC50 (Homo sapiens): 0.1 to 100 nM

Cc1cc(N2CCC(C(F)(F)F)CC2)ccc1Nc1ccc2c(c1)OC(CN)C(=O)N2 (stereo not drawn) [Compound 592, 2-(aminomethyl)-7-((2-methyl-4-(4-(trifluoromethyl)piperidin-1-yl)phenyl)amino)-2H-benzo[b][1,4]oxazin-3(4H)-one]
EC50 (Homo sapiens): 0.1 to 100 nM

Cc1cc(N2CCC(C(F)(F)F)CC2)ccc1Nc1ccc2c(c1)SCC(=O)N2 [Compound 593, 7-((2-methyl-4-(4-(trifluoromethyl)piperidin-1-yl)phenyl)amino)-2H-benzo[b][1,4]thiazin-3(4H)-one]
EC50 (Homo sapiens): 0.1 to 100 nM

Cc1cc(N2CCC(C(F)(F)F)CC2)ccc1Nc1ccc2c(c1)OCCC(=O)N2C [Compound 594, 5-methyl-8-((2-methyl-4-(4-(trifluoromethyl)piperidin-1-yl)phenyl)amino)-2,3-dihydrobenzo[b][1,4]oxazepin-4(5H)-one]
EC50 (Homo sapiens): 0.1 to 100 nM

Cc1cc(N2CC(C)(F)C2)ccc1Nc1ccc2c(c1)OCC(=O)N2 [Compound 595, 7-((4-(3-fluoro-3-methylazetidin-1-yl)-2-methylphenyl)amino)-2H-benzo[b][1,4]oxazin-3(4H)-one]
EC50 (Homo sapiens): 0.1 to 100 nM

CC1CCN(c2ccc(Nc3cnc4c(c3)OCC(=O)N4)cc2)CC1 [Compound 596, 7-((4-(4-methylpiperidin-1-yl)phenyl)amino)-2H-pyrido[3,2-b][1,4]oxazin-3(4H)-one]
EC50 (Homo sapiens): 0.1 to 100 nM

Cc1cc(N2CCC(F)(F)C2)ccc1Nc1ccc2c(c1)OCC(=O)N2 [Compound 597, 7-((4-(3,3-difluoropyrrolidin-1-yl)-2-methylphenyl)amino)-2H-benzo[b][1,4]oxazin-3(4H)-one]
EC50 (Homo sapiens): 0.1 to 100 nM

Cc1cc(N2CCC(C(F)(F)F)CC2)ccc1Nc1ccc2c(c1)CC(N)C(=O)N2 (stereo not drawn) [Compound 598, 3-amino-6-((2-methyl-4-(4-(trifluoromethyl)piperidin-1-yl)phenyl)amino)-3,4-dihydroquinolin-2(1H)-one]
EC50 (Homo sapiens): 0.1 to 100 nM

Cc1cc(N2CCC(F)C2)ccc1Nc1ccc2c(c1)OCC(=O)N2 (stereo not drawn) [Compound 599, 7-{[4-(3-fluoropyrrolidin-1-yl)-2-methylphenyl]amino}-2,4-dihydro-1,4-benzoxazin-3-one]
EC50 (Homo sapiens): 0.1 to 100 nM

CC(C)(C)C(=O)NN1C(=O)COc2cc(Nc3ccc(N4CCC(C(F)(F)F)CC4)cc3)ccc21 [Compound 600, N-(3-oxo-7-((4-(4-(trifluoromethyl)piperidin-1-yl)phenyl)amino)-2,3-dihydro-4H-benzo[b][1,4]oxazin-4-yl)pivalamide]
EC50 (Homo sapiens): 0.1 to 100 nM

Cc1cc(N2CCC(C(F)(F)F)CC2)ccc1Nc1ccc2c(c1)OC[C@H](N)C(=O)N2 [Compound 601, (S)-8-(4-(4-(trifluoromethyl)piperidin-1-yl)-2-methylphenylamino)-3-amino-2,3-dihydrobenzo[b][1,4]oxazepin-4(5H)-one]
EC50 (Homo sapiens): 0.1 to 100 nM

Cc1cc(N2CCC(C(F)(F)F)CC2)ccc1Nc1ccc2c(c1)OC(CO)C(=O)N2 (stereo not drawn) [Compound 602, 2-(hydroxymethyl)-7-((2-methyl-4-(4-(trifluoromethyl)piperidin-1-yl)phenyl)amino)-2H-benzo[b][1,4]oxazin-3(4H)-one]
EC50 (Homo sapiens): 0.1 to 100 nM

CCC1CN(c2ccc(Nc3ccc4c(c3)ncn4C)c(C)n2)CCO1 (stereo not drawn) [Compound 603, N-[6-(2-ethylmorpholin-4-yl)-2-methylpyridin-3-yl]-1-methyl-1,3-benzodiazol-5-amine]
EC50 (Homo sapiens): 0.1 to 100 nM

Cc1cc(N2CCC(C)C2)ccc1Nc1ccc2c(c1)OCC(=O)N2 (stereo not drawn) [Compound 604, 7-((2-methyl-4-(3-methylpyrrolidin-1-yl)phenyl)amino)-2H-benzo[b][1,4]oxazin-3(4H)-one]
EC50 (Homo sapiens): 0.1 to 100 nM

Cc1nc(N2C[C@@H](C)O[C@@H](C)C2)ccc1Nc1ccc2c(c1)ncn2C [Compound 605, N-(6-((2S,6R)-2,6-dimethylmorpholino)-2-methylpyridin-3-yl)-1-methyl-1H-benzo[d] imidazol-5-amine]
EC50 (Homo sapiens): 0.1 to 100 nM

Cc1cc(N2CCC(C(F)(F)F)CC2)ccc1Nc1ccn2ccnc2c1 [Compound 606, N-(2-methyl-4-(4-(trifluoromethyl)piperidin-1-yl)phenyl) imidazo[1,2-a]pyridin-7-amine]
EC50 (Homo sapiens): 100 to 1000 nM

Cc1cc(N2CCC(C(F)(F)F)CC2)ccc1Nc1ccc2c(c1)OC(CN)C(=O)N2C (stereo not drawn) [Compound 607, 2-(aminomethyl)-4-methyl-7-((2-methyl-4-(4-(trifluoromethyl)piperidin-1-yl)phenyl)amino)-2H-benzo[b][1,4]oxazin-3(4H)-one]
EC50 (Homo sapiens): 0.1 to 100 nM

Cc1cc(N2CCC(C(F)(F)F)CC2)ccc1Nc1ccc2c(c1)OCC(=O)NC2 [Compound 608, 8-((2-methyl-4-(4-(trifluoromethyl)piperidin-1-yl)phenyl)amino)-4,5-dihydrobenzo[f][1,4]oxazepin-3(2H)-one]
EC50 (Homo sapiens): 0.1 to 100 nM

CNCc1cnc2cc(Nc3ccc(N4CCC(C(F)(F)F)CC4)cc3C)ccn12 [Compound 609, N-(2-methyl-4-(4-(trifluoromethyl)piperidin-1-yl)phenyl)-3-((methylamino)methyl)imidazo[1,2-a]pyridin-7-amine]
EC50 (Homo sapiens): 0.1 to 100 nM

Cc1cc(N2CC(F)C2)ccc1Nc1ccc2c(c1)OCCC(=O)N2 [Compound 610, 8-((4-(3-fluoroazetidin-1-yl)-2-methylphenyl)amino)-2,3-dihydrobenzo[b][1,4]oxazepin-4(5H)-one]
EC50 (Homo sapiens): 0.1 to 100 nM

Cc1cc(N2CC(F)C2)ccc1Nc1ccc2c(c1)OC[C@H](N)C(=O)N2 [Compound 611, (S)-3-amino-8-((4-(3-fluoroazetidin-1-yl)-2-methylphenyl)amino)-2,3-dihydrobenzo[b][1,4]oxazepin-4(5H)-one]
EC50 (Homo sapiens): 0.1 to 100 nM

Cc1cc(N2CCC(C(F)(F)F)CC2)ccc1Nc1ccn2nccc2c1 [Compound 612, N-(2-methyl-4-(4-(trifluoromethyl)piperidin-1-yl)phenyl) pyrazolo[1,5-a]pyridin-5-amine]
EC50 (Homo sapiens): 0.1 to 100 nM

Cc1cc(N2CCC(C(F)(F)F)C2)ccc1Nc1ccc2c(c1)OCC(N)C(=O)N2 (stereo not drawn) [Compound 613, 3-amino-8-((2-methyl-4-(3-(trifluoromethyl)pyrrolidin-1-yl)phenyl)amino)-2,3-dihydrobenzo[b][1,4]oxazepin-4(5H)-one]
EC50 (Homo sapiens): 0.1 to 100 nM

Cc1cc(N2CC(OC(F)(F)F)C2)ccc1Nc1ccc2c(c1)OCCC(=O)N2 [Compound 614, 8-((2-methyl-4-(3-(trifluoromethoxy)azetidin-1-yl)phenyl)amino)-2,3-dihydrobenzo[b][1,4]oxazepin-4(5H)-one]
EC50 (Homo sapiens): 0.1 to 100 nM

Cc1cc(N2CCC(C(F)(F)F)CC2)cc2c1[nH]c1cc3cnn(C(N)=O)c3cc12 [Compound 615, 6-methyl-8-(4-(trifluoromethyl)piperidin-1-yl)pyrazolo[4,3-b]carbazole-1(5H)-carboxamide]
EC50 (Homo sapiens): 1000 to 10000 nM

COC1(C(F)(F)F)CCN(c2ccc(Nc3ccc4c(c3)OCC(=O)N4)c(C)c2)C1 (stereo not drawn) [Compound 616, 7-((4-(3-methoxy-3-(trifluoromethyl)pyrrolidin-1-yl)-2-methylphenyl)amino)-2H-benzo[b][1,4]oxazin-3(4H)-one]
EC50 (Homo sapiens): 0.1 to 100 nM

Cc1cc(N2CCC(O)(C(F)(F)F)C2)ccc1Nc1ccc2c(c1)OCC(=O)N2 (stereo not drawn) [Compound 617, 7-((4-(3-hydroxy-3-(trifluoromethyl)pyrrolidin-1-yl)-2-methylphenyl)amino)-2H-benzo[b][1,4]oxazin-3(4H)-one]
EC50 (Homo sapiens): 0.1 to 100 nM

COC1CCN(c2ccc(Nc3ccc4c(c3)OCC(=O)N4)c(C)c2)C1 (stereo not drawn) [Compound 618, 7-{[4-(3-methoxypyrrolidin-1-yl)-2-methylphenyl]amino}-2,4-dihydro-1,4-benzoxazin-3-one]
EC50 (Homo sapiens): 0.1 to 100 nM

O=C1COc2cc(Nc3ccc(N4CCC(C(F)(F)F)CC4)cc3)cc(F)c2N1 [Compound 619, 5-fluoro-7-({4-[4-(trifluoromethyl)piperidin-1-yl]phenyl}amino)-2,4-dihydro-1,4-benzoxazin-3-one]
EC50 (Homo sapiens): 0.1 to 100 nM

COCCn1c(=O)n(C)c2ccc(Nc3ccc(N4CCC(C(F)(F)F)C4)cc3C)cc21 (stereo not drawn) [Compound 620, 3-(2-methoxyethyl)-1-methyl-5-((2-methyl-4-(3-(trifluoromethyl)pyrrolidin-1-yl)phenyl)amino)-1,3-dihydro-2H-benzo[d]imidazol-2-one]
EC50 (Homo sapiens): 0.1 to 100 nM

Cc1cc(N2CC(OC(F)(F)F)C2)ccc1Nc1ccc2c(c1)OCC(=O)N2 [Compound 621, 7-((2-methyl-4-(3-(trifluoromethoxy)azetidin-1-yl)phenyl)amino)-2H-benzo[b][1,4]oxazin-3(4H)-one]
EC50 (Homo sapiens): 0.1 to 100 nM

Cc1cc(N2CCC(F)(F)C2)ccc1Nc1ccc2c(c1)OCCC(=O)N2 [Compound 622, 8-((4-(3,3-difluoropyrrolidin-1-yl)-2-methylphenyl)amino)-2,3-dihydrobenzo[b][1,4]oxazepin-4(5H)-one]
EC50 (Homo sapiens): 0.1 to 100 nM
